Assays:
Type in all cases: physicochemical
[1] = two-photon absorption (TPA) cross-sections determined by two-photon excitation fluorescence (TPEF); conditions: for σ2, effective TPA cross-section at 700 nm / σ2, effective TPA cross-section at 990 nm / σ2, effective TPA cross-section at 750 nm: in toluene; for σ2, effective TPA cross-section at 700 nm / σ2, effective TPA cross-section at 990 nm: 10^−4 M
Description: The TPA spectra of the […] synthesized compounds (LP42, LP52, CL64, CL108, MC237 and MC263) as well as the reference boron dipyrromethene CL76 were also determined in the near-infrared ([…]) by studying their two-photon excitation fluorescence (TPEF), and are shown in FIG. 9.
The measurements were taken in toluene solutions of 10^−4 M, using a titanium-sapphire laser in locked mode generating pulses of ˜80 fs at 80 MHz.
The quadratic dependence of the fluorescence intensity with the excitation intensity was verified for each point of measurement. The calibration is done with respect to the effective TPEF cross-sections of the fluorescein in water (pH=11), which were determined absolutely in the former literature in the range of 690-1000 nm.
This method provides access to the effective TPEF cross-sections (σ2φ), from which the corresponding effective TPA cross-sections (σ2) are deduced. The data in the literature for compound PM556 are added for comparison.
(§1) Φ represents its fluorescence quantum efficiency, determined with respect to the fluorescein in NaOH 0.1N, σ2 represents its effective TPA cross-section (in GM, with 1 GM=10^−50 cm^4.s.photon^−1); the TPEF measurements were performed with a titanium-sapphire laser in locked mode generating pulses of ˜80 fs at 80 MHz, by calibrating with fluorescein),

[2] = absorption and photoluminescence characteristics (absorption and fluorescence emission spectra, quantum efficiency, lifetime); conditions: in toluene; for Φ, fluorescence quantum efficiency: determined with respect to fluorescein in NaOH 0.1N
Description: The absorption and photoluminescence characteristics of the 4 compounds of which the syntheses are described above were evaluated.
λabs represents the maximum absorption wavelength of the compound,
λem represents its maximum emission wavelength,
as §1
τ represents its fluorescence lifetime (also called the fluorescent decrease time).

water solubility = test: water solubility

Compound	effective TPA cross-section relative to model CL76 at 700 nm ([1]; ratio to CL76)	σ2, effective TPA cross-section at 700 nm [1]	σ2, effective TPA cross-section at 990 nm [1]	ε, molar extinction coefficient [2]	λabs, maximum absorption wavelength [2]	λem, maximum emission wavelength [2]	τ, fluorescence lifetime [2]	Φ, fluorescence quantum efficiency [2]	effective TPA cross-section relative to model CL76 at 750 nm ([1]; at 750 nm, ratio to CL76)	σ2, effective TPA cross-section at 750 nm ([1]; at 750 nm)	water solubility (water solubility)	effective TPA cross-section relative to model CL76 at 990 nm ([1]; ratio to CL76)
CCC1=C(C)C2=C(c3ccc(C#Cc4ccc(N(c5ccc(C#Cc6ccc(C7=C8C(C)=C(CC)C(C)=[N+]8[B-](F)(F)n8c(C)c(CC)c(C)c87)cc6)cc5)c5ccc(C#Cc6ccc(C7=C8C(C)=C(CC)C(C)=[N+]8[B-](F)(F)n8c(C)c(CC)c(C)c87)cc6)cc5)cc4)cc3)c3c(C)c(CC)c(C)n3[B-](F)(F)[N+]2=C1C [CL64]	9 times	190 GM	45 GM	221700 M⁻¹ cm⁻¹	528 nm	543 nm	4.02 ns	0.93	–	–	–	–
CCC1=C(C)C2=C(c3ccc(-c4ccc(C5=C6C(C)=C(CC)C(C)=[N+]6[B-](F)(F)n6c(C)c(CC)c(C)c65)cc4)cc3)c3c(C)c(CC)c(C)n3[B-](F)(F)[N+]2=C1C [LP42, tetrafluoro[1-[2,2′-[(1,1′-biphenyl)-4,4′-diylbis[[4-ethyl-3,5-dimethyl-2H-pyrrol-2-ylidene-]methylene]]bis[4-ethyl-3,5-dimethyl-1H-pyrrolato]]]diboron]	3 times	57 GM	48 GM	161900 M⁻¹ cm⁻¹	527 nm	542 nm	4.76 ns	0.72	–	–	–	2.5 times
CCC1=C(C)C2=C(c3ccc(-c4cc(-c5ccc(C6=C7C(C)=C(CC)C(C)=[N+]7[B-](F)(F)n7c(C)c(CC)c(C)c76)cc5)cc(-c5ccc(C6=C7C(C)=C(CC)C(C)=[N+]7[B-](F)(F)n7c(C)c(CC)c(C)c76)cc5)c4)cc3)c3c(C)c(CC)c(C)n3[B-](F)(F)[N+]2=C1C [LP52, hexafluoro[μ3-[2,2′2″-[1,3,5-benzenetriyltris[4,1-phenylene[[4-ethyl-3,5-dimethyl-2H-pyrrol-2-ylidene]methylene]]tris[4-ethyl-3,5-dimethyl-1H-pyrrolato]]]]triboron]	4 times	82 GM	75 GM	244300 M⁻¹ cm⁻¹	527 nm	542 nm	4.78 ns	0.69	–	–	–	3.75 times
|4-ethyl-2-|(4-ethyl-3,5-dimethyl-2H-pyrrol-2-ylidene)phenyl methyl|-3,5-dimethyl-1H-pyrrolato|difluoroboron [CL76, reference compound]	–	20 GM	20 GM	76180 M⁻¹ cm⁻¹	527 nm	539 nm	–	0.75	–	15 GM	–	–

Second part, led by results:

effective TPA cross-section relative to model CL76 at 700 nm ([1]; ratio to CL76)	σ2, effective TPA cross-section at 700 nm [1]	σ2, effective TPA cross-section at 990 nm [1]	ε, molar extinction coefficient [2]	λabs, maximum absorption wavelength [2]	λem, maximum emission wavelength [2]	τ, fluorescence lifetime [2]	Φ, fluorescence quantum efficiency [2]	effective TPA cross-section relative to model CL76 at 750 nm ([1]; at 750 nm, ratio to CL76)	σ2, effective TPA cross-section at 750 nm ([1]; at 750 nm)	water solubility (water solubility)	Compound	effective TPA cross-section relative to model CL76 at 990 nm ([1]; ratio to CL76)
4 times	93 GM	34 GM	216400 M⁻¹ cm⁻¹	528 nm	544 nm	3.95 ns	0.89	–	–	–	CCC1=C(C)C2=C(c3ccc(C#Cc4ccc(-c5cc(-c6ccc(C#Cc7ccc(C8=C9C(C)=C(CC)C(C)=[N+]9[B-](F)(F)n9c(C)c(CC)c(C)c98)cc7)cc6)cc(-c6ccc(C#Cc7ccc(C8=C9C(C)=C(CC)C(C)=[N+]9[B-](F)(F)n9c(C)c(CC)c(C)c98)cc7)cc6)c5)cc4)cc3)c3c(C)c(CC)c(C)n3[B-](F)(F)[N+]2=C1C [MC237]	–
–	185 GM	40 GM	211100 M⁻¹ cm⁻¹	528 nm	542 nm	4.36 ns	1	18	270 GM	–	CCC1=C(C)C2=C(c3ccc(-c4cn(-c5ccc(C#Cc6ccc(N(c7ccc(C#Cc8ccc(-n9cc(-c%10ccc(C%11=C%12C(C)=C(CC)C(C)=[N+]%12[B-](F)(F)n%12c(C)c(CC)c(C)c%12%11)cc%10)nn9)cc8)cc7)c7ccc(C#Cc8ccc(-n9cc(-c%10ccc(C%11=C%12C(C)=C(CC)C(C)=[N+]%12[B-](F)(F)n%12c(C)c(CC)c(C)c%12%11)cc%10)nn9)cc8)cc7)cc6)cc5)nn4)cc3)c3c(C)c(CC)c(C)n3[B-](F)(F)[N+]2=C1C [MC263]	–
–	–	–	–	–	–	–	–	–	–	perfectly water-soluble	CC1=C(S(=O)(=O)[O-])C(C)=[N+]2C1=C(c1ccc(C#Cc3ccc(-c4cc(-c5ccc(C#Cc6ccc(C7=C8C(C)=C(S(=O)(=O)[O-])C(C)=[N+]8[B-](F)(F)n8c(C)c(S(=O)(=O)[O-])c(C)c87)cc6)cc5)cc(-c5ccc(C#Cc6ccc(C7=C8C(C)=C(S(=O)(=O)[O-])C(C)=[N+]8[B-](F)(F)n8c(C)c(S(=O)(=O)[O-])c(C)c87)cc6)cc5)c4)cc3)cc1)c1c(C)c(S(=O)(=O)[O-])c(C)n1[B-]2(F)F.[Na+].[Na+].[Na+].[Na+].[Na+].[Na+] [MC297]	–
